Experimental data: patent US12103920B2, “Cereblon binding compounds, compositions thereof, and methods of treatment therewith” (Celgene Corporation, priority 2020, dated 2024)
Structures can show the parent of a compound that is named as a salt.

Molecular target: T1, AR protein in VCaP cells (Homo sapiens, UniProt P10275)
T1 construct: endogenous in cells; host or cells: VCaP cells
T1 sequence (P10275 1-920): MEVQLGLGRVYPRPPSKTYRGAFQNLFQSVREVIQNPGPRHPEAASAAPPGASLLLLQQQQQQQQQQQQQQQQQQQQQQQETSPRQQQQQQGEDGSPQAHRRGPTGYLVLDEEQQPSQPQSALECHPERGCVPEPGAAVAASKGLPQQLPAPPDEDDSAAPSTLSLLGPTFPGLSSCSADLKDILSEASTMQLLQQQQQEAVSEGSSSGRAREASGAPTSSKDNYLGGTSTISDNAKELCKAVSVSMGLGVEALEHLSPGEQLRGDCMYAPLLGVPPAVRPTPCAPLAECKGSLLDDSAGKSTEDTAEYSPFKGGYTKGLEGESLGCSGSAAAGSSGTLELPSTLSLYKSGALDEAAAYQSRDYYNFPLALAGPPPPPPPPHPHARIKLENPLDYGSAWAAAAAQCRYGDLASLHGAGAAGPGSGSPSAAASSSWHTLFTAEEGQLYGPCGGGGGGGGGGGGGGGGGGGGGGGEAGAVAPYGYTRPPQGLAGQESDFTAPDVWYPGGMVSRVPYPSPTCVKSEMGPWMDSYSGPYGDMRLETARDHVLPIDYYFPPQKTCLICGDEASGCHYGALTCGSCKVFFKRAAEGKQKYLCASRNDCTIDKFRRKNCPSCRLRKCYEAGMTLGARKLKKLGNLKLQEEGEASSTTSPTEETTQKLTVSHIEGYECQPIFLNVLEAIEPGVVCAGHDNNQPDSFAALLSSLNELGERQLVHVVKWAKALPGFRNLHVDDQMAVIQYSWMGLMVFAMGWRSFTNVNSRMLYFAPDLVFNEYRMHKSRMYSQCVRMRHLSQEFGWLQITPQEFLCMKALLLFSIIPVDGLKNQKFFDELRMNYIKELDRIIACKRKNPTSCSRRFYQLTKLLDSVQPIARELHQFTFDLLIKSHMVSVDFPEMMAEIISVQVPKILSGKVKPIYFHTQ
Test: VCAP AR Degradation Assay
Format: cell-based
Details: 24 h, AR ELISA; for DC50: concentration at 50% of DMSO control (50% AR degradation); for Y: lowest measured AR level normalized to DMSO control
Experimental: VCAP AR Degradation Assay. Test compounds were pre-dispensed into a Corning CellBind 96-well clear bottom plate (Cat #3300) using an acoustic dispenser to make a 10-point concentration series at 1:3 dilution for each compound. The final top concentration of each compound was 5 μM. DMSO at a final concentration of 0.1% was used as a control. VCaP cells cultured in DMEM with 8% fetal bovine serum (FBS) were seeded at 50K cells per well in a 200 μL volume into the compound plate and incubated at 37° C. in a CO2 incubator for 24 h. The medium was carefully removed from the cells and the plate was placed on ice. One hundred μL of ice-cold 1× cell lysis buffer from Cell Signaling Technologies (Cat #9803) was added to each well of the cells and the plate was incubated at 4° C. on a shaker for 1 h. Fifteen μL of cell lysate was used for AR ELISA detection using a PathScan Total Sandwich AR ELISA kit (Cell Signaling Technology, Cat #12580). AR levels in compound-treated wells were normalized to that of DMSO control and expressed as percent of control (PoC) (y). A Four Parameter Logistic Model (Sigmoidal Dose-Response Model) was used to determine the compound's DC50, and EC50, using the following equation: y=(A+((B−A)/(1+((C/x)^D)))) • A=YMin (lowest AR level normalized to DMSO control in response to compound treatment, as determined by curve fit) • B=YMax (maximum AR level as determined by curve fit) • C=EC50 • D=Hill Slope • x=compound concentration • EC50=the concentration of compound when y=(YMax−YMin)/2 • DC50=the concentration of the compound when y=50% of DMSO control (50% AR degradation) • y=AR protein level normalized to DMSO control
The lowest measured AR level normalized to DMSO control in response to compound treatment, termed Y value, was used to characterize the compound-mediated AR degradation efficiency.

SMILES | DC50 [nM] | Y
CC1(C)C(=O)N(c2cnc(C#N)c(C(F)(F)F)c2)C(=S)N1[C@H]1CC[C@H](OCCN2CCN(CC(=O)Nc3cc(Cl)cc(NC4CCC(=O)NC4=O)c3)[C@@H](C(F)(F)F)C2)CC1 (stereo partly drawn) [Cmpd 26, N-(3-Chloro-5-((2,6-dioxopiperidin-3-yl)amino)phenyl)-2-((R)-4-(2-(((trans)-4-(3-(6-cyano-5-(trifluoromethyl)pyridin-3-yl)-5,5-dimethyl-4-oxo-2-thioxoimidazolidin-1-yl)cyclohexyl)oxy)ethyl)-2-(trifluoromethyl)piperazin-1-yl)acetamide] | 5 to 10 | * (0<Y≤15%)
CC1(C)C(=O)N(c2ccc(C#N)c(C(F)(F)F)c2)C(=S)N1[C@H]1CC[C@H](OCCN2CCN(CC(=O)Nc3cc(Cl)cc(NC4CCC(=O)NC4=O)c3)[C@@H](C(F)(F)F)C2)CC1 (stereo partly drawn) [Cmpd 27, N-(3-Chloro-5-((2,6-dioxopiperidin-3-yl)amino)phenyl)-2-((R)-4-(2-(((trans)-4-(3-(4-cyano-3-(trifluoromethyl)phenyl)-5,5-dimethyl-4-oxo-2-thioxoimidazolidin-1-yl)cyclohexyl)oxy)ethyl)-2-(trifluoromethyl)piperazin-1-yl)acetamide] | 10 to 100 | * (0<Y≤15%)
CC1(C)C(=O)N(c2cnc(C#N)c(C(F)(F)F)c2)C(=S)N1[C@H]1CC[C@H](OCCCN2CCN(CC(=O)Nc3cccc(NC4CCC(=O)NC4=O)c3)[C@@H](C(F)(F)F)C2)CC1 (stereo partly drawn) [Cmpd 28, 2-((R)-4-(3-(((trans)-4-(3-(6-cyano-5-(trifluoromethyl)pyridin-3-yl)-5,5-dimethyl-4-oxo-2-thioxoimidazolidin-1-yl)cyclohexyl)oxy)propyl)-2-(trifluoromethyl)piperazin-1-yl)-N-(3-((2,6-dioxopiperidin-3-yl)amino)phenyl)acetamide] | ≤ 5 | * (0<Y≤15%)
CC1(C)C(=O)N(c2ccc(C#N)c(C(F)(F)F)c2)C(=S)N1[C@H]1CC[C@H](CCCN2CCN(CC(=O)Nc3cccc(NC4CCC(=O)NC4=O)c3)[C@@H](C(F)(F)F)C2)CC1 (stereo partly drawn) [Cmpd 29, 2-((R)-4-(3-((trans)-4-(3-(4-Cyano-3-(trifluoromethyl)phenyl)-5,5-dimethyl-4-oxo-2-thioxoimidazolidin-1-yl)cyclohexyl)propyl)-2-(trifluoromethyl)piperazin-1-yl)-N-(3-((2,6-dioxopiperidin-3-yl)amino)phenyl)acetamide] | 5 to 10 | * (0<Y≤15%)
CC1(C)C(=O)N(c2ccc(C#N)c(C(F)(F)F)c2)C(=S)N1[C@H]1CC[C@H](OCCCN2CCN(CC(=O)Nc3cccc(NC4CCC(=O)NC4=O)c3)[C@@H](C(F)(F)F)C2)CC1 (stereo partly drawn) [Cmpd 30, 2-((R)-4-(3-(((trans)-4-(3-(4-Cyano-3-(trifluoromethyl)phenyl)-5,5-dimethyl-4-oxo-2-thioxoimidazolidin-1-yl)cyclohexyl)oxy)propyl)-2-(trifluoromethyl)piperazin-1-yl)-N-(3-((2,6-dioxopiperidin-3-yl)amino)phenyl)acetamide] | 5 to 10 | * (0<Y≤15%)
CC1(C)C(=O)N(c2cnc(C#N)c(C(F)(F)F)c2)C(=S)N1[C@H]1CC[C@H](OCCN2CCN(CC(=O)Nc3cc(C#N)cc(NC4CCC(=O)NC4=O)c3)[C@@H](C(F)(F)F)C2)CC1 (stereo partly drawn) [Cmpd 31, N-(3-Cyano-5-((2,6-dioxopiperidin-3-yl)amino)phenyl)-2-((R)-4-(2-(((trans)-4-(3-(6-cyano-5-(trifluoromethyl)pyridin-3-yl)-5,5-dimethyl-4-oxo-2-thioxoimidazolidin-1-yl)cyclohexyl)oxy)ethyl)-2-(trifluoromethyl)piperazin-1-yl)acetamide] | ≤ 5 | * (0<Y≤15%)
C[C@@H]1C[C@H](OCCC[C@H]2CC[C@H](N3C(=S)N(c4ccc(C#N)c(C(F)(F)F)c4)C(=O)C3(C)C)CC2)C[C@H](C)N1CC(=O)Nc1cccc(NC2CCC(=O)NC2=O)c1 (stereo partly drawn) [Cmpd 32, 2-((2R,4r,6S)-4-(3-((trans)-4-(3-(4-Cyano-3-(trifluoromethyl)phenyl)-5,5-dimethyl-4-oxo-2-thioxoimidazolidin-1-yl)cyclohexyl)propoxy)-2,6-dimethylpiperidin-1-yl)-N-(3-((2,6-dioxopiperidin-3-yl)amino)phenyl)acetamide] | 10 to 100 | ** (15%<Y≤20%)
C[C@@H]1C[C@H](OCCC[C@H]2CC[C@H](N3C(=S)N(c4cnc(C#N)c(C(F)(F)F)c4)C(=O)C3(C)C)CC2)C[C@H](C)N1CC(=O)Nc1cccc(NC2CCC(=O)NC2=O)c1 (stereo partly drawn) [Cmpd 33, 2-((2R,4r,6S)-4-(3-((trans)-4-(3-(6-Cyano-5-(trifluoromethyl)pyridin-3-yl)-5,5-dimethyl-4-oxo-2-thioxoimidazolidin-1-yl)cyclohexyl)propoxy)-2,6-dimethylpiperidin-1-yl)-N-(3-((2,6-dioxopiperidin-3-yl)amino)phenyl)acetamide hydrochloride] | 5 to 10 | ** (15%<Y≤20%)
CC1(C)C(=O)N(c2ccc(C#N)c(C(F)(F)F)c2)C(=S)N1[C@H]1CC[C@H](OCCN2CCN(CC(=O)Nc3cc(C#N)cc(NC4CCC(=O)NC4=O)c3)[C@@H](C(F)(F)F)C2)CC1 (stereo partly drawn) [Cmpd 34, 2-((R)-4-(2-(((trans)-4-(3-(4-Cyano-3-(trifluoromethyl)phenyl)-5,5-dimethyl-4-oxo-2-thioxoimidazolidin-1-yl)cyclohexyl)oxy)ethyl)-2-(trifluoromethyl)piperazin-1-yl)-N-(3-cyano-5-((2,6-dioxopiperidin-3-yl)amino)phenyl)acetamide] | 5 to 10 | *** (25%<Y<50%)
C[C@@H]1C[C@H](OCC[C@H]2CC[C@H](N3C(=S)N(c4cnc(C#N)c(C(F)(F)F)c4)C(=O)C3(C)C)CC2)C[C@H](C)N1CC(=O)Nc1cccc(NC2CCC(=O)NC2=O)c1 (stereo partly drawn) [Cmpd 35, 2-((2R,4r,6S)-4-(2-((trans)-4-(3-(6-Cyano-5-(trifluoromethyl)pyridin-3-yl)-5,5-dimethyl-4-oxo-2-thioxoimidazolidin-1-yl)cyclohexyl)ethoxy)-2,6-dimethylpiperidin-1-yl)-N-(3-((2,6-dioxopiperidin-3-yl)amino)phenyl)acetamide hydrochloride] | 10 to 100 | * (0<Y≤15%)
C[C@@H]1C[C@H](OCC[C@H]2CC[C@H](N3C(=S)N(c4ccc(C#N)c(C(F)(F)F)c4)C(=O)C3(C)C)CC2)C[C@H](C)N1CC(=O)Nc1cccc(NC2CCC(=O)NC2=O)c1 (stereo partly drawn) [Cmpd 36, 2-((2R,4r,6S)-4-(2-((trans)-4-(3-(4-Cyano-3-(trifluoromethyl)phenyl)-5,5-dimethyl-4-oxo-2-thioxoimidazolidin-1-yl)cyclohexyl)ethoxy)-2,6-dimethylpiperidin-1-yl)-N-(3-((2,6-dioxopiperidin-3-yl)amino)phenyl)acetamide] | 10 to 100 | ** (15%<Y≤20%)
C[C@@H]1CN(CCC[C@H]2CC[C@H](N3C(=S)N(c4ccc(C#N)c(C(F)(F)F)c4)C(=O)C3(C)C)CC2)C[C@H](C)N1CC(=O)Nc1cc(F)cc(NC2CCC(=O)NC2=O)c1 (stereo partly drawn) [Cmpd 38, 2-((2R,6S)-4-(3-((trans)-4-(3-(4-Cyano-3-(trifluoromethyl)phenyl)-5,5-dimethyl-4-oxo-2-thioxoimidazolidin-1-yl)cyclohexyl)propyl)-2,6-dimethylpiperazin-1-yl)-N-(3-((2,6-dioxopiperidin-3-yl)amino)-5-fluorophenyl)acetamide] | 5 to 10 | * (0<Y≤15%)
